Where a name gives a salt, the structure may show the parent alone.
How the values were obtained:
Format in all cases: biochemical
M.TaqI [1] = target: T1, M.TaqI (Thermus aquaticus, UniProt P14385)
M.HpaII = target: T2, M.HpaII (Haemophilus parainfluenzae, UniProt P15446); experiment: M.HpaII-catalyzed transfer of cofactor analogs to DNA
T2 construct: purchased New England Biolabs
T2 sequence (P15446 1-358): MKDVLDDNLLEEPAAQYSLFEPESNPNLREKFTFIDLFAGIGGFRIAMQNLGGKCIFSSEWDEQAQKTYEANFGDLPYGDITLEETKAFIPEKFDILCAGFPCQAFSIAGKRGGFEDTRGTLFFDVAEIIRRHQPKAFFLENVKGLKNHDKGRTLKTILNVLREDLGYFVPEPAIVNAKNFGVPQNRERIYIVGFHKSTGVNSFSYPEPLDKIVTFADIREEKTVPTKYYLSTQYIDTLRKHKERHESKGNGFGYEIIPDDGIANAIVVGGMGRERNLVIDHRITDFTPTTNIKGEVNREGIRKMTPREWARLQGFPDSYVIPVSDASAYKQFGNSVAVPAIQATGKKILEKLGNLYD

M.TaqI [2] = target: T1, M.TaqI; experiment: Restriction/protection assay: M.TaqI-mediated alkylation of R.EcoRI-linearized pUC19; details: for extent of DNA alkylation (protection from R.TaqI digestion) with increasing M.TaqI: 14.3 nM linearized pUC19, 20 to 200 nM M.TaqI, 65° C. 4 h; for extent of DNA alkylation (protection from R.TaqI digestion) with increasing M.TaqI / protection of DNA from R.TaqI in the absence of M.TaqI: 100 μM cofactor analog; for protection of DNA from R.TaqI in the absence of M.TaqI: no M.TaqI; for protection from R.TaqI with increasing cofactor analog concentration: 10 to 100 μM cofactor analog, 200 nM M.TaqI; for efficiency of M.TaqI dependent DNA alkylation relative to 3: linearized pUC19, disappearance of smaller restriction fragments
M.EcoRI = M.EcoRI (Escherichia coli, UniProt P00472)
Sequence of M.EcoRI (P00472 whole entry): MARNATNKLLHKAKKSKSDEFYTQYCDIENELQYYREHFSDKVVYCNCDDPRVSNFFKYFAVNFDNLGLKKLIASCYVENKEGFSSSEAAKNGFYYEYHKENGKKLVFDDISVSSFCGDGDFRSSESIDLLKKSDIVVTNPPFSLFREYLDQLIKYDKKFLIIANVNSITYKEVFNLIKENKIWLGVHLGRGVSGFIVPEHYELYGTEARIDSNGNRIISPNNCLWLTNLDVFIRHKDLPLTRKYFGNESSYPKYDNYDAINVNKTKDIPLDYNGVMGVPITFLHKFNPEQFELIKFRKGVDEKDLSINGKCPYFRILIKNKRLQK

M.SssI = M.SssI (Spiroplasma monobiae, UniProt P15840)
Sequence of M.SssI (P15840 whole entry): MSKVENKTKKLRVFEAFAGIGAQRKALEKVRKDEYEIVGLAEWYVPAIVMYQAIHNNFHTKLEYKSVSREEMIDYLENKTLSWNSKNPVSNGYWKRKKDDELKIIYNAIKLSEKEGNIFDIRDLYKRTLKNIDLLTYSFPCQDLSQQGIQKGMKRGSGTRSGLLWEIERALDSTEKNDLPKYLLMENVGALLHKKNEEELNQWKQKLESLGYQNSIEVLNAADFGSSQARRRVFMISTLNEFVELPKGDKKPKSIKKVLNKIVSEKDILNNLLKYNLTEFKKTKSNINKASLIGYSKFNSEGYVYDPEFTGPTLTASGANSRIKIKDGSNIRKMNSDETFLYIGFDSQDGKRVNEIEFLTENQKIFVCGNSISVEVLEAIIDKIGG

M.HhaI = M.HhaI (Haemophilus parahaemolyticus, UniProt P05102)
Sequence of M.HhaI (P05102 whole entry): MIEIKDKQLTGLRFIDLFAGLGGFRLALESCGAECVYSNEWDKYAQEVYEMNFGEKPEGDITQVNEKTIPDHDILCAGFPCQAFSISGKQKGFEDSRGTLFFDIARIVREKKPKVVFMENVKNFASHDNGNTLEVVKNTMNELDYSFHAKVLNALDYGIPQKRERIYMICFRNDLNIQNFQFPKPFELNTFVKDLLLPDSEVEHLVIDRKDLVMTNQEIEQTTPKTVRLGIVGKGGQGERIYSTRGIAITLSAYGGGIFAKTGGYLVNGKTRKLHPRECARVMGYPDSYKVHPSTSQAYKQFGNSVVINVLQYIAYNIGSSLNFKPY

T1 sequence (P14385 whole entry): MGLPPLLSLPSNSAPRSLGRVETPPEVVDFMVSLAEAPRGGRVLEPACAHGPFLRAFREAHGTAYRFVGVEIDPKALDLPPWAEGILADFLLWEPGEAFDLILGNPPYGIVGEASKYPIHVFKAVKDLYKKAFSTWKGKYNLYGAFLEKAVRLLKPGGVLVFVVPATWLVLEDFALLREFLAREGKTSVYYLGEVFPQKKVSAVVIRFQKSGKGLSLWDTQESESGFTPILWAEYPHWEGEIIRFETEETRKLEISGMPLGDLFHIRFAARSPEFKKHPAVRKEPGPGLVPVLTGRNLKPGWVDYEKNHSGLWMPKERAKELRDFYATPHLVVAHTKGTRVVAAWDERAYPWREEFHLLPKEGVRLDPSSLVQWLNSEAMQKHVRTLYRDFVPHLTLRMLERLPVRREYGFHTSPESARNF

Compound: 5′-aziridine adenylate [compound 3, reference compound]
- covalent attachment to synthetic oligonucleotide (DNA mobility shift) (M.TaqI [1]): pronounced shift of the DNA mobility
- M.HpaII-catalyzed transfer of cofactor analog (M.HpaII): compatible
- extent of DNA alkylation (protection from R.TaqI digestion) with increasing M.TaqI (M.TaqI [2]): increase in the amount of DNA alkylation
- protection of DNA from R.TaqI in the absence of M.TaqI (M.TaqI [2]): no protection of the DNA
- protection from R.TaqI with increasing cofactor analog concentration (M.TaqI [2]): increased protection from R.TaqI
- transfer of cofactor analog to radiolabeled synthetic oligo duplex (M.EcoRI): clearly capable of transferring

Compound: [N-]=[N+]=Nc1nc2c(N)ncnc2n1[C@@H]1O[C@H](CN2CC2)C(O)[C@@H]1O (stereo partly shown) [24a, 8-azido-5′-aziridino-5′-deoxyadenosine]
- M.SssI transfer of cofactor analog to its recognition sequence (M.SssI): readily transfers
- efficiency of M.SssI mediated DNA alkylation, hemimethylated duplex 9 versus unmethylated duplex 8 (M.SssI): significantly more efficient for hemimethylated duplex 9
- covalent attachment to synthetic oligonucleotide (DNA mobility shift) (M.TaqI [1]): pronounced shift of the DNA mobility
- transfer to the 55-mer duplex 5 (M.TaqI [1]): effectively catalyze the transfer
- M.HpaII-catalyzed transfer of cofactor analog (M.HpaII): not able to catalyze the transfer
- extent of DNA alkylation (protection from R.TaqI digestion) with increasing M.TaqI (M.TaqI [2]): increase in the amount of DNA alkylation
- protection of DNA from R.TaqI in the absence of M.TaqI (M.TaqI [2]): no protection of the DNA
- protection from R.TaqI with increasing cofactor analog concentration (M.TaqI [2]): increased protection from R.TaqI
- efficiency of M.TaqI dependent DNA alkylation relative to 3 (M.TaqI [2]): better cofactor analogs for M.TaqI than is the unsubstituted cofactor analog 3
- transfer of cofactor analog to radiolabeled synthetic oligo duplex (M.EcoRI): closely parallels that observed with M.TaqI
- M.HhaI-catalyzed transfer of cofactor analog (M.HhaI): catalyzed the transfer
- transfer to the 55-mer duplex 5 (M.HhaI): effectively catalyze the transfer

Compound: [N-]=[N+]=NCCCCNc1nc2c(N)ncnc2n1[C@@H]1O[C@H](CN2CC2)[C@H](O)C1O (stereo partly shown) [24b, 8-(4″-Azido-butylamino)-5′-aziridino-5′-deoxy adenosine]
- covalent attachment to synthetic oligonucleotide (DNA mobility shift) (M.TaqI [1]): pronounced shift of the DNA mobility
- M.HpaII-catalyzed transfer of cofactor analog (M.HpaII): not able to catalyze the transfer
- extent of DNA alkylation (protection from R.TaqI digestion) with increasing M.TaqI (M.TaqI [2]): increase in the amount of DNA alkylation
- protection of DNA from R.TaqI in the absence of M.TaqI (M.TaqI [2]): no protection of the DNA
- protection from R.TaqI with increasing cofactor analog concentration (M.TaqI [2]): increased protection from R.TaqI
- efficiency of M.TaqI dependent DNA alkylation relative to 3 (M.TaqI [2]): better cofactor analogs for M.TaqI than is the unsubstituted cofactor analog 3
- transfer of cofactor analog to radiolabeled synthetic oligo duplex (M.EcoRI): closely parallels that observed with M.TaqI
- M.HhaI-catalyzed transfer of cofactor analog (M.HhaI): catalyzed the transfer

Compound: C#CCN(CCI)C[C@H]1O[C@@H](n2cnc3c(N)ncnc32)[C@@H](O)C1O (stereo partly shown) [compound 56, 5′-[(iodoethyl)propargyl)amino]-2′,3′-5′-deoxyadenosine hydrochloride]
- DNA alkylation activity relative to 3 (M.TaqI [1]): closely parallels that of 3
- alkylation of duplex pre-methylated with SAM (M.TaqI [1]): failed to undergo reaction
- protection of linearized pUC19 DNA from R.TaqI digestion (M.TaqI [2]; brief treatments with M.TaqI, unpublished data): used very effectively to protect linearized pUC19 DNA from R.TaqI digestion
- DNA alkylation activity relative to 3 (M.EcoRI): closely parallels that of 3
- DNA alkylation at 200 nM cofactor analog (M.EcoRI): not active at all
- alkylation of duplex pre-methylated with SAM (M.EcoRI): failed to undergo reaction
- DNA-damaging activity in the presence of M.HhaI (M.HhaI): completely devoid of DNA-damaging activity

Compound: Nc1ncnc2c1ncn2[C@@H]1O[C@H](CN(CCI)CC[C@H](N)C(=O)O)C(O)[C@@H]1O (stereo partly shown) [compound 67, 5′-(diaminobutyric acid)-N-iodoethyl-5′-deoxyadenosine ammonium hydrochloride]
- alkylation of duplex bearing 5-MeC for C substitution at the target base (M.SssI): failed to undergo alkylation
- DNA alkylation at 200 nM cofactor analog (M.EcoRI): significant amount of slow mobility DNA
- lowest concentration at which cofactor analog is active (M.EcoRI): ≤ 40 nM
- alkylation of duplex bearing 5-MeC for C substitution at the target base (M.HhaI): failed to undergo alkylation
